Results from patent EP4711356A1, “TETRAHYDROCARBAZOLE DERIVATIVE, PHARMACEUTICAL COMPOSITION, AND USE THEREOF” (Nain Biotech (Hangzhou) Co., Ltd., priority 2023, dated 2024).

tested on: HeLa cells; assay: Cell-based pharmacodynamic assay (CellTiter-Glo proliferation inhibition), HeLa; settings: human cervical cancer HeLa cells; 72 hours incubation; CellTiter-Glo luminescence; read-out: IC50 against HeLa cells
Experimental: Complete media such as RPMI 1640 (Gibco, A1049101), EMEM (ATCC, 30-2003), DMEM (Gibco, C11995500CP), McCoy's 5A (Gibco, 16600082), and F-12K (ATCC, 30-2004) were prepared by supplementing with varying concentrations of FBS (Biological Industries, 04-002-1A) and 1% Penicillin-Streptomycin (Gibco, 15140122) and was thoroughly mixed. Tumor cell lines including HeLa (ATCC, CCL-2; EMEM + 10% FBS), TOV-21G (Cobioer, CBP60292; 1:1 mixture of MCDB 105 and Medium 199 + 15% FBS), OVCAR-3 (ATCC, HTB-161; RPMI 1640 + 20% FBS + 0.01 mg/ml bovine insulin), SK-OV-3 (ATCC, HTB-77; McCoy's 5A + 10% FBS), A2780 (Cobioer, CBP60283; RPMI 1640 + 10% FBS), OC316 (Cobioer, CBP60620; RPMI 1640 + 10% FBS), HuH-7 (Cobioer, CBP60202; DMEM + 10% FBS), SNU-398 (ATCC, CRL-2233; RPMI 1640 + 10% FBS), NCI-H2286 (ATCC, CRL-5938; RPMI 1640 + 5% FBS), NCI-H82 (ATCC, HTB-175; RPMI 1640 + 10% FBS), A549 (ATCC, CCL-185; F-12K + 10% FBS), SK-MEL-3 (ATCC, HTB-69; McCoy's 5A + 15% FBS), PSN-1 (Cobioer, CBP61215; RPMI 1640 + 10% FBS), LoVo (ATCC, CCL-229; F-12K + 10% FBS), DLD-1 (ATCC, CCL-221; RPMI 1640 + 10% FBS), HCT-15 (ATCC, CCL-225; RPMI 1640 + 10% FBS), A498 (ATCC, HTB-44; EMEM + 10% FBS), LNCaP (ATCC, CRL-1740; RPMI 1640 + 10% FBS), SNU-1 (ATCC, CRL-5971; RPMI 1640 + 10% FBS), SCC-9 (Cobioer, CBP60428; DMEM/F12 (1:1) + 10% FBS + 0.5 mM sodium pyruvate + 400 ng/ml hydrocortisone), SU-DHL-5 (ATCC, CRL-2958; RPMI 1640 + 10% FBS), Toledo (ATCC, CRL-2631; RPMI 1640 + 10% FBS), and SJCRH30 (ATCC, CRL-2061; RPMI 1640 + 10% FBS) were thawed. Cells were passaged approximately twice, and those in good growth condition (typically passages 4-6) were selected for experiments. The medium was aspirated, and the cells were washed once with 0.25% trypsin (Invitrogen, 25200-072). The waste liquid was discarded, and 3 mL of fresh trypsin was added to the culture flask for digestion. When the cells began to detach, 9 mL of complete medium was added to neutralize the trypsin digestion, and the mixture was gently mixed. The cell suspension was transferred to a centrifuge tube using a pipette and centrifuged at 1000 rpm for 5 minutes. The supernatant was discarded, and 5 mL of medium was added to the centrifuge tube to gently resuspend the cells evenly. The cell concentration was adjusted to 1×10^4/mL-3×10^4/mL using a cell counter (Beckman Coulter, Vi-cellTM XR). The cell suspension was added to a 96-well plate (Corning, 3903) at 100 µL/well. The plate was labeled with details such as cell name, seeding density, and date, and then placed in a CO2 incubator (Thermo, Thermo 3111) overnight. Test compounds were prepared as 20 mM stock solutions in DMSO (Sigma, D4540-1L) and added to the corresponding cell wells using an HPD300 automated dispenser according to the designed layout. The plates were incubated in a 37°C, 5% CO2 incubator for 72 hours. CellTiter-Glo Buffer was thawed at room temperature. The lyophilized CellTiter-Glo substrate was equilibrated to room temperature. The CellTiter-Glo Buffer was added to the CellTiter-Glo substrate and thoroughly mixed. The cell plates were removed and equilibrated to room temperature, and 50 µL of the mixed CellTiter-Glo reagent was added to each well. The plates were protected from light and shaken for 10 minutes, followed by incubation for 10 minutes. The plates were placed in an Enspire reader (luminescence measurement time: 0.5 s) to record luminescence results. The inhibition rate was calculated using the following formula: Inhibition rate (%) = (1 - (RLU_compound - RLU_blank) / (RLU_DMSO - RLU_blank)) × 100%. Dose-response curves were plotted using XLFit to calculate IC50 values. A four-parameter model was used: [fit = (A + ((B - A) / (1 + ((C/x) ^ D)))]. The test results for HeLa cells are shown in Table 1. Table 1: IC50 values of some test compounds against human cervical cancer HeLa cells

Compound | IC50
O=C1CCCc2c1[nH]c1cccc(C(=O)OC3CCNC3)c21 (racemic) [Compound B27] | ≤ 500 nM
CC(OC(=O)c1cccc2[nH]c3c(c12)CCCC3=O)C(=O)N(C)C (racemic) [Compound B37] | ≤ 1000 nM
CCOC(=O)c1cccc2[nH]c3c(c12)CCC(NCCO)C3=O (racemic) [Compound B131] | ≤ 500 nM
CCOC(=O)c1cccc2[nH]c3c(c12)CCC(N1CCC1)C3=O (racemic) [Compound B132] | ≤ 500 nM
CCC(OC(=O)c1cccc2[nH]c3c(c12)CCCC3=O)C1CC1 (racemic) [Compound B138] | ≤ 500 nM
Cc1ccc2[nH]c3c(c2c1)CCCC3=NCC(O)CO (racemic) [Compound E01] | ≤ 500 nM
Cc1ccc2[nH]c3c(c2c1)CCCC3=NC(CO)C(C)C (racemic) [Compound E02] | ≤ 500 nM
Cc1ccc2[nH]c3c(c2c1)C(C)CCC3=NCCO (single isomer, unassigned) [Compound E41] | ≤ 500 nM
Cc1ccc2[nH]c3c(c2c1)CCC1(CC1)C3=O [Compound B14] | ≥ 5000 nM
COC(=O)c1ccc(F)c2[nH]c3c(c12)CCCC3=O [Compound B18] | ≤ 500 nM
CCC(=O)Oc1cccc2[nH]c3c(c12)CCCC3=O [Compound B32] | ≤ 500 nM
O=C1CCCc2c1[nH]c1cccc(C(=O)OCc3ccccc3)c21 [Compound B34] | ≤ 500 nM
O=C1CCCc2c1[nH]c1cccc(C(=O)Oc3ccccc3)c21 [Compound B39] | ≤ 500 nM
O=C1CCCc2c1[nH]c1cccc(C(=O)OCc3ccc(F)cc3)c21 [Compound B43] | ≤ 500 nM
O=C1CCCc2c1[nH]c1cccc(C(=O)OCC(F)(F)F)c21 [Compound B46] | ≤ 200 nM
O=C1CCCc2c1[nH]c1cccc(-c3ccccc3)c21 [Compound B48] | ≤ 500 nM
O=C1CCCc2c1[nH]c1cccc(-c3cnc4[nH]ncc4c3)c21 [Compound B50] | ≤ 200 nM
COC(=O)c1cccc2[nH]c3c(c12)CCC3=O [Compound B51] | ≤ 200 nM
CC(C)(C)OC(=O)c1cccc2[nH]c3c(c12)CCCC3=O [Compound B55] | ≤ 200 nM
O=C1CCCc2c1[nH]c1cccc(CO)c21 [Compound B56] | ≤ 200 nM
O=C1CCCc2c1[nH]c1cccc(-c3cn[nH]c3)c21 [Compound B58] | ≤ 200 nM
N#Cc1cccc2[nH]c3c(c12)CCCC3=O [Compound B61] | ≤ 200 nM
O=C1CCCc2c1[nH]c1cccc(C3=CCOCC3)c21 [Compound B62] | ≤ 200 nM
O=C1CCCc2c1[nH]c1cccc(N3CCOCC3)c21 [Compound B63] | ≤ 200 nM
CN(C)c1cccc2[nH]c3c(c12)CCCC3=O [Compound B65] | ≤ 200 nM
O=C1CCCc2c1[nH]c1cccc(N3CCCC3)c21 [Compound B66] | ≤ 200 nM

More lines, now with the values ahead:

IC50 | Compound
≤ 200 nM | C#CC(C)OC(=O)c1cccc2[nH]c3c(c12)CCCC3=O (racemic) [Compound B36]
≤ 200 nM | CC(OC(=O)c1cccc2[nH]c3c(c12)CCCC3=O)C(F)(F)F (racemic) [Compound B44]
≤ 200 nM | CCCCNC1CCc2c([nH]c3cccc(C(=O)OCC)c23)C1=O (racemic) [Compound B103]
≤ 200 nM | CCC#CC(C)OC(=O)c1cccc2[nH]c3c(c12)CCCC3=O (racemic) [Compound B110]
≤ 200 nM | C#CCOCC(C)OC(=O)c1cccc2[nH]c3c(c12)CCCC3=O (racemic) [Compound B111]
≤ 200 nM | C#CCC(C)OC(=O)c1cccc2[nH]c3c(c12)CCCC3=O (racemic) [Compound B114]
≤ 200 nM | O=C1CCCc2c1[nH]c1cccc(C(=O)OC3CCC34CC4)c21 (racemic) [Compound B136]
≤ 200 nM | O=C1CCCc2c1[nH]c1cccc(C(=O)OC3CCOC3)c21 (racemic) [Compound B137]
≤ 200 nM | CC(O)CCCOC(=O)c1cccc2[nH]c3c(c12)CCCC3=O (racemic) [Compound B142]
≤ 200 nM | CCOC(=O)c1cccc2c1c1c(n2C(=O)C2(C)CC2(F)F)C(=O)CCC1 (racemic) [Compound C28]
≤ 200 nM | CCOC(=O)c1cccc2c1c1c(n2C(=O)C2CCCCN2C)C(=O)CCC1 (racemic) [Compound C33]
≤ 200 nM | CCOC(=O)c1cccc2c1c1c(n2C(=O)C2CCOC(C)(C)C2)C(=O)CCC1 (racemic) [Compound C37]
≤ 200 nM | CCOC(=O)c1cccc2c1c1c(n2C(=O)C(CO)c2ccccc2)C(=O)CCC1 (racemic) [Compound C48]
≤ 200 nM | CCC(CO)N=C1CCCc2c1[nH]c1cccc(C(=O)OC)c21 (racemic) [Compound E58]
≤ 200 nM | COC(=O)c1cccc2[nH]c3c(c12)CCCC3=NCC(O)CO (racemic) [Compound E59]
≤ 200 nM | COC(=O)c1cccc2[nH]c3c(c12)CCCC3=NC(CO)C(C)C (racemic) [Compound E60]
≤ 200 nM | Cc1ccc2[nH]c3c(c2n1)CCCC3=O [Compound B01]

IC50 | Compound
≤ 200 nM | COc1ccc2[nH]c3c(c2n1)CCCC3=O [Compound B09]
≤ 200 nM | COC(=O)c1cccc2[nH]c3c(c12)CCCC3=O [Compound B10]
≤ 200 nM | [2H]C([2H])([2H])c1ccc2[nH]c3c(c2c1)CCCC3=O [Compound B15]
≤ 200 nM | CC(C)OC(=O)c1cccc2[nH]c3c(c12)CCCC3=O [Compound B17]
≤ 200 nM | O=C1CCCc2c1[nH]c1cccc(N3CCn4cnnc4C3)c21 [Compound B19]
≤ 200 nM | CC1(C)CCN(c2cccc3[nH]c4c(c23)CCCC4=O)C1 [Compound B23]
≤ 200 nM | CC(C)(O)C1CN(c2cccc3[nH]c4c(c23)CCCC4=O)C1 [Compound B24]
≤ 200 nM | CCCCOC(=O)c1cccc2[nH]c3c(c12)CCCC3=O [Compound B25]
≤ 200 nM | O=C1CCCc2c1[nH]c1cccc(C(=O)OC3CC3)c21 [Compound B26]
≤ 200 nM | O=C1CCCc2c1[nH]c1cccc(C(=O)OC3CCOCC3)c21 [Compound B30]
≤ 200 nM | O=C1CCCc2c1[nH]c1cccc(C(=O)OCCO)c21 [Compound B31]
≤ 200 nM | CC(C)C(=O)Oc1cccc2[nH]c3c(c12)CCCC3=O [Compound B33]
≤ 200 nM | COCCOC(=O)c1cccc2[nH]c3c(c12)CCCC3=O [Compound B38]
≤ 200 nM | CC(C)(C)COC(=O)c1cccc2[nH]c3c(c12)CCCC3=O [Compound B40]
≤ 200 nM | O=C1CCCc2c1[nH]c1cccc(C(=O)OCC3CC3)c21 [Compound B41]
≤ 200 nM | O=C1CCCc2c1[nH]c1cccc(C(=O)OC(CF)CF)c21 [Compound B42]
≤ 200 nM | O=C1CCCc2c1[nH]c1cccc(C(=O)OCCC(F)(F)F)c21 [Compound B45]
